In US5032595A, “Method of stimulating steroidogenesis with alpidem” (FIDIA-Georgetown Institute for the Neurosciences, priority 1989, dated 1991):

Key:
[1] = test system: purified rat Leydig cells; experiment: Testosterone production by purified rat Leydig cells, basal and hCG stimulated
[2] = test system: rat adrenocortical cells; experiment: Corticosterone secretion in dissociated rat adrenocortical cells; assay type: cell-based; conditions: rat adrenocortical cell suspensions, FIG. 5a
Protocol: (§1) Cells--The Y-1 adrenal mouse tumor cell line used in these studies was obtained from the American Type Culture Collection (ATCC #CCL 79). Stock cultures were grown in modified Waymouth's MB752/l medium containing 20 mM HEPES, 1.2 g/l NaHCO3, 15% horse serum and 2.5% fetal calf serum, pH 7.4. Before use the cells were washed three times at 30 min intervals, with serum-free media in order to eliminate serum components that may interfere with the assays and were incubated for the indicated time periods in the presence of the drugs under investigation. Bovine fasciculata-reticularis and adrenocortical cells from adult (300 g) Sprague-Dawley rats were prepared as previously described by Yanagibashi et al, (1989) Endocrinology 124; 2838-2391.
Measurement of steroid production--These experiments were performed with the Y-1 cells plated in 12--22 mm wells and incubated for the times shown at a final volume of 1 ml of serum-free media at 37° C. […] Steroid production was determined by measuring 20-γ-hydroxyprogesterone, the main steroid product of these cells, using a radioimmunoassay with an antibody donated by Dr. G. Nieswender (Univ. of Colorado, Fort Collins), under the process described in Kowal J. (1970), Recent Progress in Hormone Research 26, 623-687 and Schimmer B.P. (1981) in Functionally Differentiated Cell Lines, ed. […]

[3] = target: T1, peripheral-type benzodiazepine receptor (PBR) in Y-1 cells (Mus musculus, UniProt P50637); experiment: [3H]PK 11195 binding in Y-1 adrenocortical cells; conditions: 37° C., FIG. 2a
T1 construct: Y-1 cell cultures were scraped from the flasks; host or cells: Y-1 mouse adrenal tumor cells
Protocol: as §1
Radioligand binding assays--Y-1 cell cultures were scraped from the flasks ([…]) in 5 ml of Kreb's buffer, dispersed by repetitive pipetting, and centrifuged at 1,200 × g for 5 min. The cell pellets were resuspended in Kreb's buffer and larger cellular aggregates were allowed to settle for 5 min. The finely dispersed cell suspensions were taken for further experimentation.
Binding assays were performed in a total volume of 250-400 ul of Kreb's buffer containing [^3 H]PK 11195 (0.07-20 nM) with 5 ug of cellular protein. Incubations were conducted at 37° C. for 30 min and bound radioligand was measured by filtration through Whatman GF/C filters followed by four rapid 5 ml washes with 25 mM Tris-HCl (pH 7.4) containing 1 uM PK 11195. Filters were subjected to liquid scintillation counting. Nonspecific binding was measured in the presence (of 10 uM nonradioactive PK 11195.

T1 sequence (P50637 whole entry): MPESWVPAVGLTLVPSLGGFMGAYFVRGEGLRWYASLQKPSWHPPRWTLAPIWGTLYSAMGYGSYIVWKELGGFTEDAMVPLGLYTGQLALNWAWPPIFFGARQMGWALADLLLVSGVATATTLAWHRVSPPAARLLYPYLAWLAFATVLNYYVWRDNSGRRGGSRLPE

CN1C(=O)CN=C(c2ccc(Cl)cc2)c2cc(Cl)ccc21 [Ro5-4864, 4'-chlorodiazepam]
Testosterone, No Additions ([1]; compound 10^-5 M, basal, 4 hours at 32° C., mean ± S.D. n = 3, control 1.30 ± 0.20): 2.40 ± 0.30 ng/10^5 cel s/4 hours
Testosterone, hCG (50 ng/ml) ([1]; compound 10^-5 M, hCG 50 ng/ml, 4 hours at 32° C., mean ± S.D. n = 3, control 15.13 ± 2.05): 14.10 ± 2.26 ng/10^5 cel s/4 hours
stimulation of testosterone production ([1]; purified rat Leydig cells, basal, 240 min): about 2 fold
stimulation of steroid production (corticosterone), in words [2]: much more potent at stimulating steroidogenesis in rat adrenocortical cells when compared with bovine preparations
rank order of compound displacement potency against [3H]PK 11195 binding [3]: alpidem>PK 11195>PK 14067>4'-chlorodiazepam>zolpidem>PK 14608, diazepam>flunitrazepam>clonazepam>flumazenil
